The record followed here is ChEMBL document CHEMBL3112479, “Synthesis and evaluation of the antimicrobial activities of 3-((5-phenyl-1,3,4-oxadiazol-2-yl)methyl)-2-thioxothiazolidin-4-one derivatives” (2014).

≈ marks a conversion by molar mass, not a printed value.

In assay [1] the test system is Escherichia coli. In words: Antimicrobial activity against Escherichia coli KCTC 1924 after 20 hrs by two-fold serial dilution technique. Format: functional. The following applies: KCTC 1924, 20 h.
Assay [2] relates to Streptococcus mutans. In words: Antimicrobial activity against Streptococcus mutans 3065 after 20 hrs by two-fold serial dilution technique. Format: functional. The following applies: Streptococcus mutans, 3065, 20 h.
Assay [3] relates to Staphylococcus aureus. Put plainly: Antimicrobial activity against quinolone-resistant Staphylococcus aureus clinical isolate 3505 after 20 hrs by two-fold serial dilution technique. Type of assay: functional. The conditions noted are these: isolate 3505, 20 h.
In assay [4] the test system is Staphylococcus aureus. In words: Antimicrobial activity against methicillin-resistant Staphylococcus aureus clinical isolate 3506 after 20 hrs by two-fold serial dilution technique. Type of assay: functional. The conditions noted are these: isolate 3506, 20 h.
For assay [5], the system named is Salmonella typhimurium. Put plainly: Antimicrobial activity against Salmonella typhimurium 1926 after 20 hrs by two-fold serial dilution technique. Type of assay: functional, Salmonella enterica subsp. enterica serovar Typhimurium. The following applies: Salmonella enterica, 1926, 20 h.
In assay [6] the test system is Pseudomonas aeruginosa. Put plainly: Antimicrobial activity against Pseudomonas aeruginosa 2004 after 20 hrs by two-fold serial dilution technique. Format: functional. The conditions noted are these: Pseudomonas aeruginosa, 2004, 20 h.
Assay [7] deals with Staphylococcus aureus. In words: Antimicrobial activity against quinolone-resistant Staphylococcus aureus clinical isolate 3519 after 20 hrs by two-fold serial dilution technique. Format: functional. The following applies: isolate 3519, 20 h.
Assay [8] has as its system Staphylococcus aureus. Put plainly: Antimicrobial activity against Staphylococcus aureus 209 after 20 hrs by two-fold serial dilution technique. Format: functional. The conditions noted are these: Staphylococcus aureus, 209, 20 h.
Assay [9] relates to Escherichia coli. Put plainly: Antimicrobial activity against Escherichia coli CCARM 1356 after 20 hrs by two-fold serial dilution technique. The conditions noted are these: CCARM 1356, 20 h. Type of assay: functional.
For assay [10], the system named is Salmonella typhimurium. Put plainly: Antimicrobial activity against Salmonella typhimurium 2421 after 20 hrs by two-fold serial dilution technique. Format: functional, Salmonella enterica subsp. enterica serovar Typhimurium. The conditions noted are these: Salmonella enterica, 2421, 20 h.
Assay [11] relates to Pseudomonas aeruginosa. Put plainly: Antimicrobial activity against Pseudomonas aeruginosa 2742 after 20 hrs by two-fold serial dilution technique. Type of assay: functional. The following applies: Pseudomonas aeruginosa, 2742, 20 h.
Assay [12] concerns Staphylococcus aureus. In words: Antimicrobial activity against Staphylococcus aureus RN4220 after 20 hrs by two-fold serial dilution technique. Format: functional. The following applies: RN4220, 20 h.
In assay [13] the test system is Staphylococcus aureus. In words: Antimicrobial activity against Staphylococcus aureus 503 after 20 hrs by two-fold serial dilution technique. Type of assay: functional. The conditions noted are these: Staphylococcus aureus, 503, 20 h.
For assay [14], the system named is Staphylococcus aureus. Put plainly: Antimicrobial activity against methicillin-resistant Staphylococcus aureus clinical isolate 3167 after 20 hrs by two-fold serial dilution technique. Format: functional. The following applies: isolate 3167, 20 h.
Assay [15] concerns Candida albicans. In words: Antimicrobial activity against Candida albicans 7535 after 20 hrs by two-fold serial dilution technique. The conditions noted are these: Candida albicans, 7535, 20 h. Format: functional.

The MIC is the smallest concentration in the dilution series that meets the test's criterion for growth inhibition. `O=C1CSC(=S)N1Cc1nnc(-c2ccc(Cl)cc2)o1`: the MIC in assay [1] was 16 µg/mL (≈ 49.1 µM); in assay [2], 16 µg/mL (≈ 49.1 µM); in [3] it was 64 µg/mL (≈ 196 µM); in assay [4], 32 µg/mL (≈ 98.2 µM); in [5], 32 µg/mL (≈ 98.2 µM); in [6], above 128 µg/mL. Further, the MIC is 64 µg/mL (≈ 196 µM) in assay [7]; 32 µg/mL (≈ 98.2 µM) in assay [8]; above 128 µg/mL in [9]; 128 µg/mL (≈ 393 µM) in [10]; above 128 µg/mL in assay [11]; 32 µg/mL (≈ 98.2 µM) in assay [12]. The MIC in assay [13] amounted to 64 µg/mL (≈ 196 µM); in [14], 32 µg/mL (≈ 98.2 µM); in [15], 32 µg/mL (≈ 98.2 µM).
For the compound `O=C(O)c1ccc(/C=C2\SC(=S)N(Cc3nnc(-c4cccc(Cl)c4)o3)C2=O)cc1`, the MIC was above 128 µg/mL in assay [1]; 16 µg/mL (≈ 34.9 µM) in assay [2]; 16 µg/mL (≈ 34.9 µM) in assay [3]; 32 µg/mL (≈ 69.9 µM) in assay [4]; above 128 µg/mL in assay [5]; above 128 µg/mL in assay [6]. For the same compound, the MIC was 16 µg/mL (≈ 34.9 µM) in assay [7]; 16 µg/mL (≈ 34.9 µM) in [8]; above 128 µg/mL in assay [9]; above 128 µg/mL in assay [10]; above 128 µg/mL in assay [11]; 8 µg/mL (≈ 17.5 µM) in assay [12]. In addition, the MIC in assay [13] was 16 µg/mL (≈ 34.9 µM); in [14], 8 µg/mL (≈ 17.5 µM); in assay [15] it was above 64 µg/mL.
Take `O=C1CSC(=S)N1Cc1nnc(-c2ccccc2)o1`: the MIC in assay [1] was 64 µg/mL (≈ 220 µM); in assay [2], 64 µg/mL (≈ 220 µM); in [3], 64 µg/mL (≈ 220 µM); in [4] it was 64 µg/mL (≈ 220 µM); in assay [5], 64 µg/mL (≈ 220 µM); in assay [6], above 128 µg/mL. Besides, the MIC in assay [7] was 64 µg/mL (≈ 220 µM); in assay [8] it was 32 µg/mL (≈ 110 µM); in assay [9], above 128 µg/mL; in assay [10], 128 µg/mL (≈ 439 µM); in assay [11] it was above 128 µg/mL; in [12], 64 µg/mL (≈ 220 µM). For the same compound, the MIC in assay [13], in [14] and in assay [15] was 64 µg/mL (≈ 220 µM) in each case.
As for `O=C(O)c1ccc(/C=C2\SC(=S)N([C@@H](Cc3ccccc3)c3nnc(-c4cccc(Br)c4)o3)C2=O)cc1`, the MIC in [1] was above 128 µg/mL; in assay [2], 1 µg/mL (≈ 1.69 µM); in [3], 2 µg/mL (≈ 3.38 µM); in assay [4], 1 µg/mL (≈ 1.69 µM); in [5], above 128 µg/mL; in [6], above 128 µg/mL. Also, the MIC in [7] is 2 µg/mL (≈ 3.38 µM); in assay [8], above 64 µg/mL; in assay [9], above 128 µg/mL; in assay [10] it was above 128 µg/mL; in [11], above 128 µg/mL; in [12], 2 µg/mL (≈ 3.38 µM). Moreover, the MIC is above 64 µg/mL in [13], 1 µg/mL (≈ 1.69 µM) in assay [14] and above 64 µg/mL in assay [15].
For `Cc1ccccc1-c1nnc(CN2C(=O)CSC2=S)o1`, the MIC is 16 µg/mL (≈ 52.4 µM) in assay [1]; 16 µg/mL (≈ 52.4 µM) in assay [2]; 32 µg/mL (≈ 105 µM) in assay [3]; 64 µg/mL (≈ 210 µM) in assay [4]; 32 µg/mL (≈ 105 µM) in assay [5]; above 128 µg/mL in assay [6]. Moreover, the MIC was 64 µg/mL (≈ 210 µM) in assay [7]; 16 µg/mL (≈ 52.4 µM) in [8]; above 128 µg/mL in assay [9]; 128 µg/mL (≈ 419 µM) in assay [10]; above 128 µg/mL in assay [11]; 32 µg/mL (≈ 105 µM) in [12]. Further, the MIC in assay [13] stood at 64 µg/mL (≈ 210 µM); in [14], 32 µg/mL (≈ 105 µM); in assay [15] it was 64 µg/mL (≈ 210 µM).
Regarding `CCn1cc(C(=O)O)c(=O)c2cc(F)c(N3CCNCC3)cc21` [NORFLOXACIN], the MIC is above 64 µg/mL in [3], 4 µg/mL (≈ 12.5 µM) in assay [4], above 64 µg/mL in [7] and 8 µg/mL (≈ 25.1 µM) in [14].
In the case of `COc1c(N2C[C@@H]3CCCN[C@@H]3C2)c(F)cc2c(=O)c(C(=O)O)cn(C3CC3)c12` [MOXIFLOXACIN], the MIC in assay [2] came out at 0.25 µg/mL (≈ 0.623 µM); in assay [5], 1 µg/mL (≈ 2.49 µM); in assay [6], 2 µg/mL (≈ 4.98 µM); in assay [9], 128 µg/mL (≈ 319 µM); in [10], 0.5 µg/mL (≈ 1.25 µM); in [12], 0.25 µg/mL (≈ 0.623 µM). Besides, the MIC came to 2 µg/mL (≈ 4.98 µM) in assay [13] and 0.5 µg/mL (≈ 1.25 µM) in [15].
